Structures are written as SMILES.

The target in experiment [1] is T1, Amine oxidase [flavin-containing] B (Rattus norvegicus, UniProt P19643).
T1 sequence (P19643 whole entry): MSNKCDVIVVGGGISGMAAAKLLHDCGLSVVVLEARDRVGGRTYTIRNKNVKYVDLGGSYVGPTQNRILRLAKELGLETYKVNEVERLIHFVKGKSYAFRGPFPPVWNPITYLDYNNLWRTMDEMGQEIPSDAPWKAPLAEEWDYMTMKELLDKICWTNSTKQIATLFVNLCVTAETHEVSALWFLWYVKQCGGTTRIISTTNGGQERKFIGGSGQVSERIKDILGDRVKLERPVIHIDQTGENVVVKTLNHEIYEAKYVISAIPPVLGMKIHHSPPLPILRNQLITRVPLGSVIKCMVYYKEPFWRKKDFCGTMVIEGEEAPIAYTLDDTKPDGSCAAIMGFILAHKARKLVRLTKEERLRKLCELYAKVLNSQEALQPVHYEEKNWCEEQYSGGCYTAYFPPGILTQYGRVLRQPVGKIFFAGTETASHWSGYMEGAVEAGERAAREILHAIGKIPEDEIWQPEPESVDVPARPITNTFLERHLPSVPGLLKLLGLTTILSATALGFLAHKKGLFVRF
Description: (§1) Compound was tested for its inhibitory effect on Monoamine oxidase B at 3 uM

Experiment [2] addresses T2, Amine oxidase [flavin-containing] A (Rattus norvegicus, UniProt P21396).
T2 sequence (P21396 whole entry): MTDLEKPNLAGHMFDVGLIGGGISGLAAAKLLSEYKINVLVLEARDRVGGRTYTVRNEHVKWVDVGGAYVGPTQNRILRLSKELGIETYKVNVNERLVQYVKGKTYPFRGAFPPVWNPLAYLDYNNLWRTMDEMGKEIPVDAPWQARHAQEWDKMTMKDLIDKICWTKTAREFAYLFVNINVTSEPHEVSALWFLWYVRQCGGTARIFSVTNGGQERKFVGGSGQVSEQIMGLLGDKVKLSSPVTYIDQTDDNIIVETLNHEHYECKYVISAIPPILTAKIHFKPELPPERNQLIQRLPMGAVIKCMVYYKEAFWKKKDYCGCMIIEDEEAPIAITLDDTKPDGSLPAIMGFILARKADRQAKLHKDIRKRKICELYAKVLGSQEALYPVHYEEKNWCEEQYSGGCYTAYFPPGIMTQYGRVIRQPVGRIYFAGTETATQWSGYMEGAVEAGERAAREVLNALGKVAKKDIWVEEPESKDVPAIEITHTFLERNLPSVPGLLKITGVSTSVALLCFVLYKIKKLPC

Experiment [3] addresses T1, Amine oxidase [flavin-containing] B. The source holds these as a separate data set.
In experiment [4] the target is T2, Amine oxidase [flavin-containing] A. The source holds these as a separate data set.
Description: Compound was tested for its inhibitory effect on Monoamine oxidase A at 50 uM
For experiment [5] the target is unchanged. This is another data set of the same source.
Description: Compound was tested for its inhibitory effect on Monoamine oxidase A at 2 uM
For experiment [6] the target is unchanged. This is another data set of the same source.
Description: Compound was tested for its inhibitory effect on MAO-A ( Monoamine Oxidase) at 50 uM
Experiment [7] concerns the target T1, Amine oxidase [flavin-containing] B. This is another data set of the same source.
Description: Compound was tested for its inhibitory effect on MAO-B ( Monoamine Oxidase) at 4 uM
The target in experiment [8] is T2, Amine oxidase [flavin-containing] A. This is another data set of the same source.
Description: Compound was tested for its inhibitory effect on Monoamine oxidase A at 20 uM)
Experiment [9] concerns the target T1, Amine oxidase [flavin-containing] B. This is another data set of the same source.
Description: (§2) Compound was tested for its inhibitory effect on MAO-B ( Monoamine Oxidase) at 100 uM
In experiment [10] the target is T2, Amine oxidase [flavin-containing] A. This is another data set of the same source.
Description: (§3) Compound was tested for its inhibitory effect on MAO-A ( Monoamine Oxidase) at 100 uM
For experiment [11], the target named is T1, Amine oxidase [flavin-containing] B. This is another data set of the same source.
Experiment [12] concerns the target T2, Amine oxidase [flavin-containing] A. The source holds these as a separate data set.
Description: Compound was tested for its inhibitory effect on Monoamine oxidase A at 1 uM
Experiment [13] shares this target. This is another data set of the same source.
Description: Compound was tested for its inhibitory effect on Monoamine oxidase A at 5 uM
Experiment [14] has as its target T1, Amine oxidase [flavin-containing] B. This is another data set of the same source.
Description: Compound was tested for its inhibitory effect on Monoamine oxidase B at 40 uM
The target in experiment [15] is T2, Amine oxidase [flavin-containing] A. This is another data set of the same source.
Description: Compound was tested for its inhibitory effect on Monoamine oxidase A at 15 uM
The target is the same in experiment [16]. The source holds these as a separate data set.
Description: Compound was tested for its inhibitory effect on Monoamine oxidase A at 30 uM
Experiment [17] deals with T1, Amine oxidase [flavin-containing] B. The source holds these as a separate data set.
Description: as §1
Experiment [18] addresses T2, Amine oxidase [flavin-containing] A. This is another data set of the same source.
Description: Compound was tested for its inhibitory effect on Monoamine oxidase A at 3 uM
The target is the same in experiment [19]. The source holds these as a separate data set.
Description: Compound was tested for its inhibitory effect on Monoamine oxidase A at 8 uM
Experiment [20] has as its target T1, Amine oxidase [flavin-containing] B. This is another data set of the same source.
Description: as §2
For experiment [21], the target named is T2, Amine oxidase [flavin-containing] A. This is another data set of the same source.
Description: as §3

On to `O=c1cc(-c2ccccc2)oc2ccc(OCc3ccccc3)cc12`, for which at 3 µM the inhibition in experiment [1] was 38%.
Consider `Cc1c(C)c2ccc(/C=C/c3ccccc3)cc2oc1=O`, for which the values for the IC50 in [2] and in experiment [3] were 0.407 µM and 0.0282 µM, respectively.
`c1ccc(COc2ccc3ccoc3c2)cc1`: in experiment [3], the concentration for half-maximal inhibition (IC50) is 1.82 µM. For the same compound, the inhibition at 50 µM in experiment [4] amounted to 30%.
Turning to `Cc1c(C)c2ccc(OCc3ccc(F)c(O)c3)cc2oc1=O`, the figures for the IC50 in experiment [2] and in [3] were 0.115 µM and 0.00741 µM, respectively.
Consider `O=C1OCc2ccc(OCc3ccccc3)cc21`, for which the IC50 in [2] is 3.63 µM; in experiment [3], 0.234 µM.
With `CC1C(=O)Nc2cc(OCc3ccccc3)ccc2C1C` (centres undefined), in [3], the IC50 is 0.631 µM. This compound also gave an inhibition at 2 µM in [5] of 0%.
In the case of `COc1cc2ccc(=O)oc2cc1OCc1ccccc1`, in [3], the IC50 is 6.76 µM. Besides, 50 µM produced 18% inhibition in experiment [6].
The compound `O=C1CCc2ccc(OCc3ccccc3)cc2O1` had an inhibition at 4 µM in [7] of 20%.
`O=c1cc(C(F)(F)F)c2ccc(OCc3ccccc3)cc2o1` had a concentration for half-maximal inhibition (IC50) in [3] of 1.38 µM.
In turn, `O=c1oc2cc(OCc3ccccc3)ccc2s1` gave an IC50 in experiment [3] of 58.9 µM. Further, in experiment [8], the inhibition at 20 µM was determined as 0%.
`O=c1ccoc2cc(OCc3ccccc3)ccc12`: the results for the IC50 in experiment [2] and in experiment [3] were 16.2 µM and 1.05 µM, respectively.
Compound `Cc1c(C)c2ccc(OCCc3ccccc3)cc2oc1=O` had an IC50 in experiment [2] of 1 µM.
As to `O=c1ccc2cc(O[C@H]3O[C@H](CO)[C@@H](O)[C@@H](O)[C@@H]3O)c(OCc3ccccc3)cc2o1`, the inhibition at 100 µM in [9] turned out to be 11%; in experiment [10], 15%.
For the compound `O=c1cc(-c2ccccc2)oc2cc(OCc3ccccc3)ccc12`, the inhibition at 1 µM in experiment [11] and in experiment [12] was 6% each time.
In experiment [2], `CC(=O)Nc1cccc(COc2ccc3c(C)c(C)c(=O)oc3c2)c1` gave an IC50 of 7.08 µM.
With `O=c1ccc2cc(OCc3ccccc3)c(O)cc2o1`, the IC50 in experiment [2] is 23.4 µM; in [3], 2.04 µM.
The compound `O=C1NC(=O)c2cc(OCc3ccccc3)ccc21` yielded an inhibition at 5 µM in experiment [13] of 25%.
Consider `Cc1ccc(S(=O)(=O)Nc2ccc3c(C)c(C)c(=O)oc3c2)cc1`, for which, in [2], the half-maximal inhibitory concentration (IC50) is 67.6 µM. 40 µM produced 29% inhibition in [14].
For `Cc1c(C)c2ccc(OCc3cccc(N)c3)cc2oc1=O`, the IC50 in experiment [2] is 1 µM; in experiment [3], 0.0347 µM.
As for `O=c1cc(O)c2ccc(OCc3ccccc3)cc2o1`, in [3], the IC50 is 1.58 µM. The compound further displayed an inhibition at 15 µM in [15] of 26%.
Regarding `Cc1cc(=O)c2cc(OCc3ccccc3)ccc2o1`, the IC50 in [2] was 21.9 µM; in [3], 0.126 µM.
For `c1ccc(COc2ccc3c(c2)OCO3)cc1`, in [3], the IC50 is 2.4 µM. Also, 30 µM produced 18% inhibition in [16].
For the compound `O=c1ccoc2ccc(OCc3ccccc3)cc12`, the half-maximal inhibitory concentration (IC50) in experiment [2] is 6.76 µM; in [3], 0.562 µM.
Regarding `Cc1c(-c2ccccc2)c(=O)oc2cc(OCc3ccccc3)ccc12`, the inhibition at 3 µM stood at 8% in experiment [17] and 4% in experiment [18].
In the case of `c1ccc(COc2ccc3ccccc3c2)cc1`, the IC50 in experiment [3] was 2.57 µM. In addition, testing at 8 µM in experiment [19] gave an inhibition of 0%.
On to `c1ccc(COc2ccc3c(c2)OCC3)cc1`, for which the IC50 is 39.8 µM in experiment [2] and 0.501 µM in [3].
With `O=c1ccc2cc(O[C@@H]3O[C@H](CO)[C@@H](O)[C@H](O)[C@H]3O)c(O)cc2o1` [ESCULIN], the inhibition at 100 µM in [20] was found to be 7%; in experiment [21], 9%.
Turning to `O=c1ccc2ccccc2o1` [COUMARIN], the IC50 in [2] was 40.7 µM; in experiment [3], 12 µM.
For `Cc1c(C)c2ccc(OC(C)c3ccccc3)cc2oc1=O` (centres undefined) the same measures were 3.55 µM and 0.324 µM.
As for `O=C1CCc2ccc(OCc3ccccc3)cc2N1`, the values for the IC50 in [2] and in experiment [3] were 102 µM and 1.05 µM, respectively.

For the origin of these results see ChEMBL document CHEMBL1133545, “Inhibition of monoamine oxidases by functionalized coumarin derivatives: biological activities, QSARs, and 3D-QSARs” (J Med Chem, 2000).
